Data reported in the supplement of paper PMC10627819.

How the values were obtained:
Experiment in all cases: Bliss interaction score (quartile over a dose matrix) (fitness difference); higher = more antagonism (negative = synergy)
[1] = tested on: B. subtilis 168
Procedure, shortened: (§1)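 The Bliss score is observed minus expected fitness, where expected fitness is the product of the single-drug fitness values inferred from the combination data. Fitness is the OD595 at the onset of stationary phase over the plate's robust no-drug mean, capped at 1. Scores are summarised by quartiles over technical, biological and donor/recipient replicates.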

[2] = tested on: S. aureus DSM 20231
Procedure, shortened: as §1

[3] = tested on: S. pneumoniae D39V
Procedure, shortened: as §1

[4] = tested on: S. aureus Newman
Procedure, shortened: as §1
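Note: first quartile when negative (synergy) and third quartile when positive (antagonism).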

| Compound | Bliss interaction score [1] | Bliss interaction score [2] | Bliss interaction score [3] | Bliss interaction score [4] | Bliss interaction score ([1]; main component drawn) | Bliss interaction score ([2]; main component drawn) | Bliss interaction score ([3]; main component drawn) | Bliss interaction score ([4]; main component drawn) |
| --- | --- | --- | --- | --- | --- | --- | --- | --- |
| O=C(O)c1cn(C2CC2)c2cc(N3CCNCC3)c(F)cc2c1=O [Ciprofloxacin] + CC[C@H]1OC(=O)[C@H](C)[C@@H](O[C@H]2C[C@@](C)(OC)[C@@H](O)[C@H](C)O2)[C@H](C)[C@@H](O[C@@H]2O[C@H](C)C[C@H](N(C)C)[C@H]2O)[C@](C)(O)C[C@@H](C)C(=O)[C@H](C)[C@@H](O)[C@]1(C)O [Erythromycin] | 0.211 | 0.0597 | 0.065 | 0.0474 | – | – | – | – |
| O=C(O)c1cn(C2CC2)c2cc(N3CCNCC3)c(F)cc2c1=O [Ciprofloxacin] + CN(C)[C@@H]1C(O)=C(C(N)=O)C(=O)[C@@]2(O)C(O)=C3C(=O)c4c(O)ccc(Cl)c4[C@@](C)(O)[C@H]3C[C@@H]12 [Clortetracycline] | 0.199 | 0.104 | -0.035 | 0.119 | – | – | – | – |
| O=C(O)c1cn(C2CC2)c2cc(N3CCNCC3)c(F)cc2c1=O [Ciprofloxacin] + CN[C@H](CC(C)C)C(=O)N[C@H]1C(=O)N[C@@H](CC(N)=O)C(=O)N[C@H]2C(=O)N[C@H]3C(=O)N[C@H](C(=O)N[C@H](C(=O)O)c4cc(O)cc(O)c4-c4cc3ccc4O)[C@H](O[C@H]3C[C@](C)(N)[C@@H](O)[C@H](C)O3)c3ccc(c(Cl)c3)Oc3cc2cc(c3O[C@@H]2O[C@H](CO)[C@@H](O)[C@H](O)[C@H]2O[C@H]2C[C@](C)(NCc3ccc(-c4ccc(Cl)cc4)cc3)[C@@H](O)[C@H](C)O2)Oc2ccc(cc2Cl)[C@H]1O [Oritavancin] | -0.0274 | -0.0468 | 0.0622 | -0.0474 | – | – | – | – |
| O=C(O)c1cn(C2CC2)c2cc(N3CCNCC3)c(F)cc2c1=O [Ciprofloxacin] + CO[C@@]12[C@H](COC(N)=O)C3=C(C(=O)C(C)=C(N)C3=O)N1C[C@@H]1N[C@@H]12 [MitomycinC] | -0.108 | -0.057 | -0.111 | 0.0577 | – | – | – | – |
| O=C(O)c1cn(C2CC2)c2cc(N3CCNCC3)c(F)cc2c1=O [Ciprofloxacin] + N[C@@H]1CONC1=O [CycloserineD] | -0.0971 | -0.0461 | 0.0695 | -0.105 | – | – | – | – |
| O=C(O)c1cn(C2CC2)c2cc(N3CCNCC3)c(F)cc2c1=O [Ciprofloxacin] + O=C(O)[C@H]1/C(=C/CO)O[C@@H]2CC(=O)N21 [Clavulanic] | -0.154 | -0.184 | -0.0997 | 0.18 | – | – | – | – |
| O=C(O)c1cn(C2CC2)c2cc(N3CCNCC3)c(F)cc2c1=O [Ciprofloxacin] + Oc1cc(Cl)ccc1Oc1ccc(Cl)cc1Cl [Triclosan] | -0.0391 | 0.0355 | 0.0508 | -0.0217 | – | – | – | – |
| CN(C)[C@@H]1C(O)=C(C(N)=O)C(=O)[C@@]2(O)C(O)=C3C(=O)c4c(O)ccc(Cl)c4[C@@](C)(O)[C@H]3C[C@@H]12 [Clortetracycline] + C/C(=C\C(=O)OCCCCCCCCC(=O)O)C[C@@H]1OC[C@H](C[C@@H]2O[C@H]2[C@@H](C)[C@H](C)O)[C@@H](O)[C@H]1O [Pseudomonic acid] | -0.0689 | 0.0276 | 0.0729 | 0.0209 | – | – | – | – |
| CN(C)[C@@H]1C(O)=C(C(N)=O)C(=O)[C@@]2(O)C(O)=C3C(=O)c4c(O)ccc(Cl)c4[C@@](C)(O)[C@H]3C[C@@H]12 [Clortetracycline] + CC1(C)S[C@@H]2[C@H](NC(=O)Cc3ccccc3)C(=O)N2[C@H]1C(=O)O [PenicillinG] | 0.123 | 0.0499 | -0.0336 | -0.0614 | – | – | – | – |
| CN(C)[C@@H]1C(O)=C(C(N)=O)C(=O)[C@@]2(O)C(O)=C3C(=O)c4c(O)ccc(Cl)c4[C@@](C)(O)[C@H]3C[C@@H]12 [Clortetracycline] + CC1=C\[C@@H](O)CC(=O)Cc2nc(co2)C(=O)N2CCC=C2C(=O)O[C@H](C(C)C)[C@H](C)/C=C/C(=O)NC\C=C\1 [Virginiamycin M1] | 0.0837 | -0.0704 | -0.0413 | -0.049 | – | – | – | – |
| CN(C)[C@@H]1C(O)=C(C(N)=O)C(=O)[C@@]2(O)C(O)=C3C(=O)c4c(O)ccc(Cl)c4[C@@](C)(O)[C@H]3C[C@@H]12 [Clortetracycline] + CC(=O)NC[C@H]1CN(c2ccc(N3CCOCC3)c(F)c2)C(=O)O1 [Linezolid] | -0.259 | -0.0326 | -0.0813 | -0.0457 | – | – | – | – |
| CN(C)[C@@H]1C(O)=C(C(N)=O)C(=O)[C@@]2(O)C(O)=C3C(=O)c4c(O)ccc(Cl)c4[C@@](C)(O)[C@H]3C[C@@H]12 [Clortetracycline] + CC(=O)O[C@H]1C[C@@]2(C)[C@@H](C[C@@H](O)[C@H]3[C@@]4(C)CC[C@@H](O)[C@@H](C)[C@@H]4CC[C@@]32C)/C1=C(\CCC=C(C)C)C(=O)O [Fusidic acid] | -0.11 | 0.026 | -0.0508 | 0.0488 | – | – | – | – |
| CN(C)[C@@H]1C(O)=C(C(N)=O)C(=O)[C@@]2(O)C(O)=C3C(=O)c4c(O)ccc(Cl)c4[C@@](C)(O)[C@H]3C[C@@H]12 [Clortetracycline] + CC(C1CCC(C(O1)OC2C(CC(C(C2O)OC3C(C(C(CO3)(C)O)NC)O)N)N)N)NC [Gentamicin] | – | – | – | – | 0.181 | 0.0919 | -0.183 | 0.141 |
| CN(C)[C@@H]1C(O)=C(C(N)=O)C(=O)[C@@]2(O)C(O)=C3C(=O)c4c(O)ccc(Cl)c4[C@@](C)(O)[C@H]3C[C@@H]12 [Clortetracycline] + CCC(C)C1C(=O)NC(=C)C(=O)NC(C(=O)NC(CSCC(C(=O)N1)NC(=O)/C(=C/C)/NC(=O)C(C(C)CC)N)C(=O)NC2C(SCC(NC(=O)CNC(=O)C3CCCN3C2=O)C(=O)NC(CCCCN)C(=O)NC4C(SCC(NC(=O)CNC(=O)C(NC(=O)C(NC(=O)C(NC(=O)CNC4=O)C)CC(C)C)CCSC)C(=O)NC(CC(=O)N)C(=O)NC(CCSC)C(=O)NC(CCCCN)C(=O)NC5C(SCC6C(=O)NC(C(=O)NC(CSC(C(C(=O)N6)NC(=O)C(NC5=O)C)C)C(=O)NC(CO)C(=O)NC(C(C)CC)C(=O)NC(CC7=CN=CN7)C(=O)NC(C(C)C)C(=O)NC(=C)C(=O)NC(CCCCN)C(=O)O)CC8=CN=CN8)C)C)C)CC(C)C [Nisin] | – | – | – | – | 0.0718 | 0.0616 | -0.122 | 0.0486 |
| CN(C)[C@@H]1C(O)=C(C(N)=O)C(=O)[C@@]2(O)C(O)=C3C(=O)c4c(O)ccc(Cl)c4[C@@](C)(O)[C@H]3C[C@@H]12 [Clortetracycline] + CCCCCCCCCC(=O)N[C@@H]1[C@H]([C@@H]([C@H](O[C@H]1OC2=C3C=C4C=C2OC5=C(C=C(C=C5)[C@H]([C@H]6C(=O)N[C@@H](C7=C(C(=CC(=C7)O)OC8[C@H]([C@H]([C@@H]([C@H](O8)CO)O)O)O)C9=C(C=CC(=C9)[C@H](C(=O)N6)NC(=O)[C@@H]4NC(=O)[C@@H]1C2=CC(=CC(=C2)OC2=C(C=CC(=C2)[C@H](C(=O)N[C@H](CC2=CC(=C(O3)C=C2)Cl)C(=O)N1)N)O)O)O)C(=O)O)O[C@H]1[C@@H]([C@H]([C@@H]([C@H](O1)CO)O)O)NC(=O)C)Cl)CO)O)O [Teicoplanin] | – | – | – | – | 0.0958 | 0.111 | -0.0412 | 0.0527 |
| CN(C)[C@@H]1C(O)=C(C(N)=O)C(=O)[C@@]2(O)C(O)=C3C(=O)c4c(O)ccc(Cl)c4[C@@](C)(O)[C@H]3C[C@@H]12 [Clortetracycline] + CCC[C@@H]1C[C@@H](C(=O)N[C@@H]([C@H]2O[C@H](SC)[C@H](O)[C@@H](O)[C@H]2O)[C@@H](C)O)N(C)C1 [Lincomycin] | 0.103 | -0.171 | 0.036 | -0.144 | – | – | – | – |
| CN(C)[C@@H]1C(O)=C(C(N)=O)C(=O)[C@@]2(O)C(O)=C3C(=O)c4c(O)ccc(Cl)c4[C@@](C)(O)[C@H]3C[C@@H]12 [Clortetracycline] + CCN(CC)CCOC(=O)c1ccc(N)cc1 [Procaine] | 0.0759 | -0.0714 | -0.0498 | 0.0501 | – | – | – | – |
| CN(C)[C@@H]1C(O)=C(C(N)=O)C(=O)[C@@]2(O)C(O)=C3C(=O)c4c(O)ccc(Cl)c4[C@@](C)(O)[C@H]3C[C@@H]12 [Clortetracycline] + CC[C@H]1OC(=O)[C@H](C)C(=O)[C@H](C)[C@@H](O[C@@H]2O[C@H](C)C[C@H](N(C)C)[C@H]2O)[C@](C)(OC)C[C@@H](C)C(=O)[C@H](C)[C@H]2N(CCCCn3cnc(-c4cccnc4)c3)C(=O)O[C@]12C [Telithromycin] | -0.372 | -0.0731 | -0.0824 | -0.101 | – | – | – | – |
| CN(C)[C@@H]1C(O)=C(C(N)=O)C(=O)[C@@]2(O)C(O)=C3C(=O)c4c(O)ccc(Cl)c4[C@@](C)(O)[C@H]3C[C@@H]12 [Clortetracycline] + CC[C@H]1OC(=O)[C@H](C)[C@@H](O[C@H]2C[C@@](C)(OC)[C@@H](O)[C@H](C)O2)[C@H](C)[C@@H](O[C@@H]2O[C@H](C)C[C@H](N(C)C)[C@H]2O)[C@](C)(O)C[C@@H](C)C(=O)[C@H](C)[C@@H](O)[C@]1(C)O [Erythromycin] | -0.214 | -0.118 | 0.0677 | -0.0583 | – | – | – | – |
